In patent US8049015B2 (Panmira Pharmaceuticals, LLC, priority 2008, dated 2011):

Target: T1, human DP2 receptor (Homo sapiens, UniProt Q9Y5Y4)
T1 construct: expressed in transfected cells
T1 sequence (Q9Y5Y4 1-395): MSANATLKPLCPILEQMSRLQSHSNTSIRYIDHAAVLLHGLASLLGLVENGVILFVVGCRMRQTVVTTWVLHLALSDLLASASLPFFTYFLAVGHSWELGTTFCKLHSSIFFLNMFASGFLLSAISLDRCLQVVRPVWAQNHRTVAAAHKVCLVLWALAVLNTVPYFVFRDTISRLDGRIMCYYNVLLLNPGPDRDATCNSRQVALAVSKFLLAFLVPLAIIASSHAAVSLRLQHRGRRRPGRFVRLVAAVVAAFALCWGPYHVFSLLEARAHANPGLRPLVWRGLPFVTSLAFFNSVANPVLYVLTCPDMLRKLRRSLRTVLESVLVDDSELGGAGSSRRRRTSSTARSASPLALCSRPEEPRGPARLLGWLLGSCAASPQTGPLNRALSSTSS
Experiment: DP2/CRTH2 binding assay (radioligand binding with [3H]PGD2)
Settings: [3H]PGD2 binding, membranes of HEK293 cells expressing recombinant human DP2; read-out: hDP2
Method: The ability of a compound to bind to the human DP2 receptor is assessed via a radioligand binding assay using [^3H]PGD2. HEK293 cells stably expressing recombinant human DP2 are resuspended in 10 mM Hepes, 7.4 containing 1 mM DTT, lysed and centrifuged at 75,000×g to pellet the membranes. The membranes are resuspended in 10 mM Hepes, 7.4 containing 1 mM DTT and 10% glycerol to approximately 5 mg protein/ml. Membranes (2-10 μg protein/well) are incubated in 96-well plates with 1 nM [^3H]PGD2 and test compound in Assay Buffer (50 mM Hepes, 10 mM MnCl2, 1 mM EDTA, plus or minus 0.2% human serum albumin, pH 7.4) for 60 minutes at room temperature. The reactions are terminated by rapid filtration through Whatman GF/C glass fibre filter plates. The filter plates were pre-soaked in 0.33% polythylenimine for 30 minutes at room temperature then washed in Wash Buffer (50 mM Hepes, 0.5 M NaCl pH 7.4) prior to harvesting. After harvesting, the filter plates are washed 3 times with 1 ml cold Wash Buffer then dried. Scintillant is then added to the plates and the radioactivity retained on the filters is determined on a Packard TopCount (Perkin Elmer). Specific binding is determined as total radioactive binding minus non-specific binding in the presence of 10 μM PGD2. IC50s were determined using GraphPad prism analysis of drug titration curves.

CCN(Cc1cc(C(F)(F)F)ccc1-c1cncc(CC(=O)O)c1)C(=O)Cc1ccccn1 [Compound 33, [5-(2-{[N-Ethyl-N-(2-pyridin-2-yl-acetyl)-amino]-methyl}-4-trifluoromethyl-phenyl)-pyridin-3-yl]-acetic acid]
IC50: < 300 nM

CCN(Cc1cc(C(F)(F)F)ccc1-c1cncc(CC(=O)O)c1)C(=O)c1cnccn1 [Compound 29, [5-(2-{[N-Ethyl-N-(pyrazine-2-carbonyl)-amino]-methyl}-4-trifluoromethyl-phenyl)-pyridin-3-yl]-acetic acid]
IC50: 300 to 1000 nM

CCN(Cc1cc(F)ccc1-c1cncc(CC(=O)O)c1)C(=O)C1CC1 [Compound 23, (5-{2-[(N-Cyclopropanecarbonyl-N-ethyl-amino)-methyl]-4-fluoro-phenyl}-pyridin-3-yl)-acetic acid]
IC50: 300 to 1000 nM

N#Cc1ccc(-c2cncc(CC(=O)O)c2)c(CN(Cc2ccccc2)C(=O)C2CC2)c1 [Compound 3, (5-{2-[(N-Benzyl-N-cyclopropanecarbonyl-amino)-methyl]-4-cyano-phenyl}-pyridin-3-yl)-acetic acid]
IC50: < 300 nM

O=C(O)Cc1cncc(-c2ccc(C(F)(F)F)cc2CN(Cc2ccccc2)C(=O)C2CC2)c1 [Compound 17, (5-{2-[(N-Benzyl-N-cyclopropanecarbonyl-amino)-methyl]-4-trifluoromethyl-phenyl}-pyridin-3-yl)-acetic acid]
IC50: < 300 nM

CNC(=O)c1ccc(-c2cncc(CC(=O)O)c2)c(CN(Cc2ccccc2)C(=O)C2CC2)c1 [Compound 6, (5-{2-[(N-Benzyl-N-cyclopropanecarbonyl-amino)-methyl]-4-methylcarbamoyl-phenyl}-pyridin-3-yl)-acetic acid]
IC50: 300 to 1000 nM

CCN(Cc1cc(C(F)(F)F)ccc1-c1cc(CC(=O)O)cnc1O)C(=O)C1CC1 [Compound 38, (5-{2-[(N-Cyclopropanecarbonyl-N-ethyl-amino)-methyl]-4-trifluoromethyl-phenyl}-6-hydroxy-pyridin-3-yl)-acetic acid]
IC50: 300 to 1000 nM

CC(=O)N(Cc1ccccc1)Cc1cc(C(F)(F)F)ccc1-c1cc(CC(=O)O)cnc1Cl [Compound 19, (5-{2-[(N-Acetyl-N-benzyl-amino)-methyl]-4-trifluoromethyl-phenyl}-6-chloro-pyridin-3-yl)-acetic acid]
IC50: < 300 nM

CCN(Cc1cc(C(F)(F)F)ccc1-c1cncc(CC(=O)O)c1)C(=O)NCc1ccccc1 [Compound 14, {5-[2-(3-Benzyl-1-ethyl-ureidomethyl)-4-trifluoromethyl-phenyl]-pyridin-3-yl}-acetic acid]
IC50: < 300 nM

CCN(Cc1cc(S)ccc1-c1cncc(CC(=O)O)c1)C(=O)C1CC1 [Compound 24, (5-{2-[(N-Cyclopropanecarbonyl-N-ethyl-amino)-methyl]-4-mercapto-phenyl}-pyridin-3-yl)-acetic acid]
IC50: < 300 nM

CCN(Cc1cc(C(F)(F)F)ccc1-c1cc(CC(=O)O)cnc1OC)C(=O)NCc1ccccc1 [Compound 27, {5-[2-(3-Benzyl-1-ethyl-ureidomethyl)-4-trifluoromethyl-phenyl]-6-methoxy-pyridin-3-yl}-acetic acid]
IC50: < 300 nM

CCN(Cc1cc(C(F)(F)F)ccc1-c1cc(CC(=O)O)cnc1OC)C(=O)C1CC1 [Compound 10, (5-{2-[(N-Cyclopropanecarbonyl-N-ethyl-amino)-methyl]-4-trifluoromethyl-phenyl}-6-methoxy-pyridin-3-yl)-acetic acid]
IC50: < 300 nM

CCN(Cc1cc(C(F)(F)F)ccc1-c1cc(CC(=O)O)cnc1Cl)C(=O)C1CC1 [Compound 11, (6-Chloro-5-{2-[(N-cyclopropanecarbonyl-N-ethyl-amino)-methyl]-4-trifluoromethyl-phenyl}-pyridin-3-yl)-acetic acid]
IC50: 300 to 1000 nM

CCN(Cc1cc(C(F)(F)F)ccc1-c1cncc(CC(=O)O)c1)C(=O)COC [Compound 34, [5-(2-{[N-Ethyl-N-(2-methoxy-acetyl)-amino]-methyl}-4-trifluoromethyl-phenyl)-pyridin-3-yl]-acetic acid]
IC50: 300 to 1000 nM

CCN(Cc1cc(SC(C)(C)C)ccc1-c1cncc(CC(=O)O)c1)C(=O)C1CC1 [Compound 22, (5-{4-tert-Butylsulfanyl-2-[(N-cyclopropanecarbonyl-N-ethyl-amino)-methyl]-phenyl}-pyridin-3-yl)-acetic acid]
IC50: < 300 nM

CC(=O)N(Cc1ccccc1)Cc1cc(C(F)(F)F)ccc1-c1cncc(CC(=O)O)c1 [Compound 18, (5-{2-[(N-Acetyl-N-benzyl-amino)-methyl]-4-trifluoromethyl-phenyl}-pyridin-3-yl)-acetic acid]
IC50: < 300 nM

O=C(O)Cc1cncc(-c2ccc(-c3nn[nH]n3)cc2CN(Cc2ccccc2)C(=O)C2CC2)c1 [Compound 4, {5-[2-[(N-Benzyl-N-cyclopropanecarbonyl-amino)-methyl]-4-(2H-tetrazol-5-yl)-phenyl]-pyridin-3-yl}-acetic acid]
IC50: < 300 nM

CCN(Cc1cc(C(F)(F)F)ccc1-c1cc(CC(=O)O)cnc1OC)C(=O)OCc1ccccc1 [Compound 40, (5-{2-[(N-Benzyloxycarbonyl-N-ethyl-amino)-methyl]-4-trifluoromethyl-phenyl}-6-methoxy-pyridin-3-yl)-acetic acid]
IC50: < 300 nM

CCN(Cc1cc(C(F)(F)F)ccc1-c1cnc(Cl)c(CC(=O)O)c1)C(=O)C1CC1 [Compound 9, (2-Chloro-5-{2-[(N-cyclopropanecarbonyl-N-ethyl-amino)-methyl]-4-trifluoromethyl-phenyl}-pyridin-3-yl)-acetic acid]
IC50: 300 to 1000 nM

CCN(Cc1cc(C(=O)O)ccc1-c1cncc(CC(=O)O)c1)C(=O)C1CC1 [Compound 2, 4-(5-Carboxymethyl-pyridin-3-yl)-3-[(N-cyclopropanecarbonyl-N-ethyl-amino)-methyl]-benzoic acid]
IC50: < 300 nM

CCN(Cc1cc(C(F)(F)F)ccc1-c1cncc(CC(=O)O)c1)C(=O)OC(C)(C)C [Compound 13, (5-{2-[(N-tert-Butoxycarbonyl-N-ethyl-amino)-methyl]-4-trifluoromethyl-phenyl}-pyridin-3-yl)-acetic acid]
IC50: < 300 nM

CCN(Cc1cc(C(F)(F)F)ccc1-c1cncc(CC(=O)O)c1)C(=O)Cc1ccc(Cl)nc1 [Compound 31, {5-[2-({N-[2-(6-Chloro-pyridin-3-yl)-acetyl]-N-ethyl-amino}-methyl)-4-trifluoromethyl-phenyl]-pyridin-3-yl}-acetic acid]
IC50: < 300 nM

CC(C)(C)NC(=O)c1ccc(-c2cncc(CC(=O)O)c2)c(CN(Cc2ccccc2)C(=O)C2CC2)c1 [Compound 7, (5-{2-[(N-Benzyl-N-cyclopropanecarbonyl-amino)-methyl]-4-tert-butylcarbamoyl-phenyl}-pyridin-3-yl)-acetic acid]
IC50: 300 to 1000 nM

CCOc1cc(OCC)nc(CC(=O)N(CC)Cc2cc(C(F)(F)F)ccc2-c2cncc(CC(=O)O)c2)n1 [Compound 32, {5-[2-({N-[2-(4,6-Diethoxy-pyrimidin-2-yl)-acetyl]-N-ethyl-amino}-methyl)-4-trifluoromethyl-phenyl]-pyridin-3-yl}-acetic acid]
IC50: < 300 nM

COc1ncc(CC(=O)O)cc1-c1ccc(C(F)(F)F)cc1CN(Cc1ccccc1)C(C)=O [Compound 28, (5-{2-[(N-Acetyl-N-benzyl-amino)-methyl]-4-trifluoromethyl-phenyl}-6-methoxy-pyridin-3-yl)-acetic acid]
IC50: < 300 nM

CCOC(=O)N(CC)Cc1cc(C(F)(F)F)ccc1-c1cc(CC(=O)O)cnc1OC [Compound 43, (5-{2-[(N-Ethoxycarbonyl-N-ethyl-amino)-methyl]-4-trifluoromethyl-phenyl}-6-methoxy-pyridin-3-yl)-acetic acid]
IC50: < 300 nM

CCN(Cc1cc(C(=O)O)ccc1-c1cncc(CC(=O)O)c1)C(=O)OCc1ccccc1 [Compound 1, 3-[(N-Benzyloxycarbonyl-N-ethyl-amino)-methyl]-4-(5-carboxymethyl-pyridin-3-yl)-benzoic acid]
IC50: < 300 nM

O=C(O)CCn1c2c(c3ccccc31)C[C@H](NS(=O)(=O)c1ccc(F)cc1)CC2 [Ramatroban, reference compound]
IC50: 300 to 1000 nM

CCN(Cc1cc(C(F)(F)F)ccc1-c1cncc(CC(=O)O)c1)C(=O)Cc1ccccc1 [Compound 16, (5-{2-[(N-Ethyl-N-phenylacetyl-amino)-methyl]-4-trifluoromethyl-phenyl}-pyridin-3-yl)-acetic acid]
IC50: < 300 nM

CCN(Cc1cc(C(F)(F)F)ccc1-c1cncc(CC(=O)O)c1)C(=O)C1CC1 [Compound 8, (5-{2-[(N-Cyclopropanecarbonyl-N-ethyl-amino)-methyl]-4-trifluoromethyl-phenyl}-pyridin-3-yl)-acetic acid]
IC50: < 300 nM
